In patent US5328913A, “Minoxidil analogs as inhibitors of cell proliferation and lysyl hydroxylase” (priority 1992, dated 1994):
“Also recorded” adds a separate entry of the source.

Legend:
[1] = system: non-proliferating fibroblasts; experiment: Cytotoxicity to non-proliferating fibroblasts (cell number per dish); format: cell-based; settings: 5 mM, 72 hr
Description: Certain aspects of the present invention are described in greater detail in the non-limiting Examples that follow. (See also Murad et al, Arch. Biochem. Biophys. 292:234 (1992)).

[2] = in vivo; cited from earlier work
[3] = system: Collagen Synthesis in Human Skin Fibroblasts; experiment: Collagen synthesis in human skin fibroblasts; format: cell-based; settings: 1 mM, 72 hr; mean ± SD of duplicate analysis of two cultures (Table VII)
Experimental: (§1) Culture of human skin fibroblasts derived from an apparently normal adult were grown to confluent densities in Dulbecco's modified Eagle's medium supplemented with 10% (v/v) fetal calf serum. Thereafter, the medium was replaced with medium supplemented with 0.5% dialyzed fetal calf serum. The cultures were treated for 72 hr with 1 mM minoxidil, 3'- hydroxyminoxidil,or 4'-hydroxyminoxidil (Upjohn) dissolved in aqueous medium. In some experiments, minoxodil was dissolved in 95% (v/v) ethanol; […]. Cultures treated with ethanol only served as the control.
During the last 6 hr of treatment, cultures were labeled with 20 μCi of L-[2,3-^3 H]proline in 1 ml of medium supplemented with 100 μM ascorbic acid. The amount of proline radioactivity incorporated into collagen in the medium and cells combined was measured after digestion with a bacterial collagenase, essentially as described previously (Freiberger et al, J. Invest. Dermatol. 75:425 (1980)).

[4] = system: Prolyl Hydroxylations in Human Skin Fibroblasts; experiment: Hydroxylation of proline residues in type I procollagen (Hyp/Pro); format: cell-based; settings: 1 mM; for Hyp/Pro: 72 hr; for activity at 1000 µM: Homo sapiens, Skin fibroblast, 72 hr (Table V), read-out: ratio of hydroxyproline to proline, % control value
Experimental: Culture of human skin fibroblasts derived from an apparently normal adult were grown to confluent densities in Dulbecco's modified Eagle's medium supplemented with 10% (v/v) fetal calf serum. Thereafter, the medium was replaced with medium supplemented with 0.5% dialyzed fetal calf serum. […] In some experiments, minoxodil was dissolved in 95% (v/v) ethanol; […]. Cultures treated with ethanol only served as the control.
(§2) During the last 6 hr of treatment, cultures were labeled with 50 μCi of L-[2,3-^3 H]proline (35 Ci/mmol) and 50 μCi of L[U-^14 C]lysine ([…]) in 4 ml of lysine-free medium supplemented with 100 μM ascorbic acid. At the end of the incubation period, the medium was removed and mixed with 1 mM each of EDTA, N-ethylmaleimide, and phenylmethylsulfonylfluoride, and the collagenous proteins were precipitated with 30% (NH4)2 SO4. The cell layer was scraped and extracted with 0.5 M acetic acid containing the protease inhibitors as above. The cell extract was neutralized, and the collagenous proteins were precipitated as above. The (NH4)2 SO4 precipitate from the medium and cell layer was separately dissolved in 0.1% SDS/10 mM Tris-HCl (pH 6.8), reduced with dithiothreitol, and analyzed by electrophoresis on 4% SDS-polyacrylamide gels. The bands corresponding to the proαl(I) and proα2(I) chains from the two fractions were pooled and hydrolyzed with 6 M HCl for 24 hr at 110° C. Proline, hydroxyproline, lysine, and hydroxylysine in the hydrolysate were separated by HPLC (Takimitsa et al, J. Dermatol. 16:37 (1989)), and their radioactivity was determined in a Beckman liquid scintillation counter. To isolate type I procollagen the precipitate from the medium and cell layer was separately dissolved in 25 mM Tris-HCl, pH 7.5, containing 2 M urea and 1 mM each of EDTA, N-ethylmaleimide, and phenylmethylsulfonylfluoride, then chromatographed on a DEAE-cellulose column (Freiberger et al, J. Invest. Dermatol. 75:425 (1980)). The procollagen isolated from the two fractions was pooled, hydrolyzed, and analyzed as above.

lysyl hydroxylase = experiment: Lysyl hydroxylase activity in fibroblasts treated with minoxidil and its hydroxy derivatives (Example 3); format: cell-based, human; settings: for Fibroblast Lysyl Hydroxylase Activity: 48 hr
Experimental: Culture of human skin fibroblasts derived from an apparently normal adult were grown to confluent densities in Dulbecco's modified Eagle's medium supplemented with 10% (v/v) fetal calf serum. Thereafter, the medium was replaced with medium supplemented with 0.5% dialyzed fetal calf serum. […] In some experiments, minoxodil was dissolved in 95% (v/v) ethanol; the final concentration of minoxidil was 0.3 mM and that of ethanol was 0.3%. Cultures treated with ethanol only served as the control.
(§3) During the last 3 hr of treatment, cultures received 100 μM ascorbic acid. The enzyme activities in extracts of treated cells were measured by tritium-release assays described previously (Murad and Pinnell, J. Biol. Chem. 262:11,973 (1987)).

prolyl hydroxylase = experiment: Prolyl hydroxylase activity in fibroblasts treated with minoxidil and its hydroxy derivatives (Example 3); format: cell-based, human; settings: for prolyl hydroxylase activity (in words) / Prolyl Hydroxylase Activity: 1 mM; for prolyl hydroxylase activity (in words): 72 hr
Experimental: Culture of human skin fibroblasts derived from an apparently normal adult were grown to confluent densities in Dulbecco's modified Eagle's medium supplemented with 10% (v/v) fetal calf serum. Thereafter, the medium was replaced with medium supplemented with 0.5% dialyzed fetal calf serum. The cultures were treated for 72 hr with 1 mM minoxidil, 3'- hydroxyminoxidil,or 4'-hydroxyminoxidil (Upjohn) dissolved in aqueous medium. In some experiments, minoxodil was dissolved in 95% (v/v) ethanol; the final concentration of minoxidil was 0.3 mM and that of ethanol was 0.3%. Cultures treated with ethanol only served as the control.
as §3

[5] = system: Lysyl Hydroxylations in Human Skin Fibroblasts; experiment: Hydroxylation of lysine residues in type I procollagen (Hyl/Lys); format: cell-based; settings: 1 mM; for Hyl/Lys: 72 hr; for activity at 1000 µM: Homo sapiens, Skin fibroblast, 72 hr (Table V), read-out: ratio of hydroxylysine to lysine, percentage of control value
Experimental: as §1, §2

human skin fibroblasts = experiment: Fibroblast proliferation; format: cell-based; settings: relative to minoxidil
Experimental: Cultures were seeded at a density of 100,000 cells per 35 mm-dish and allowed to attach and proliferate in the presence of 20% calf serum. Drug-treated cultures received 1 mM minoxidil or its hydroxy derivative on day 1 after seeding.

[6] = type I procollagen chains isolated by gel electrophoresis, mean ± range of two experiments (description table)
[7] = 1 mM, 72 hr (description table)

SMILES	10^-6 × No. of Cells/Dish [1]	antihypertensive / hypotensive activity (in words) [2]	% Collagen Synthesized [3]	Hyp/Pro ([4]; gel electrophoresis (Table V))	Hyp/Pro [4, 6]	activity at 1000 µM [4]	suppression of lysyl hydroxylase (in words) (lysyl hydroxylase)	Fibroblast Lysyl Hydroxylase Activity (lysyl hydroxylase; 1 mM)	Lysyl Hydroxylase Activity (lysyl hydroxylase; 1 mM, 72 hr (Table VI))	Lysyl Hydroxylase Activity (lysyl hydroxylase; [7])	Fibroblast Lysyl Hydroxylase Activity (lysyl hydroxylase; 5 mM)	effect on prolyl hydroxylase (in words) (prolyl hydroxylase)	prolyl hydroxylase activity (in words) (prolyl hydroxylase)	Prolyl Hydroxylase Activity (prolyl hydroxylase; 72 hr (Table VI))	Prolyl Hydroxylase Activity (prolyl hydroxylase; 72 hr (description table))	Hyl/Lys ([5]; gel electrophoresis (Table V))	Hyl/Lys [5, 6]	activity at 1000 µM [5]	suppression of fibroblast proliferation (in words) (human skin fibroblasts)	Lysyl hydroxylase activity, % of control level (lysyl hydroxylase; 1 mM, 72 hr)
Nc1cc(N2CCC(O)CC2)nc(N)[n+]1[O-] [4'-Hydroxyminoxidil]	1.42 10^-6 × No. of Cells/Dish	Neither metabolite exhibits the marked hypotensive activity associated with minoxidil; also recorded: inactive as antihypertensive agents	8.2 ± 0.6%	1.12 ± 0.07	1.12 ± 0.07	122%	inhibitory potential comparable to that of minoxidil; also recorded: as active as minoxidil in suppressing fibroblast proliferation and lysyl hydroxylase activity	415 cpm^3 H2 O/mg protein	239 cpm ^3 H2 O/mg protein	293 cpm^3 H2 O/mg protein	494 cpm^3 H2 O/mg protein	without affecting prolyl hydroxylase	remained unchanged	33500 cpm ^3 H2 O/mg protein	33500 cpm^3 H2 O/mg protein	0.09 ± 0.01	0.09 ± 0.01	41%	as active as minoxidil in suppressing fibroblast proliferation	
Nc1cc(N2CCCC(O)C2)nc(N)[n+]1[O-] (stereo not drawn) [3'-Hydroxyminoxidil]	1.39 10^-6 × No. of Cells/Dish	Neither metabolite exhibits the marked hypotensive activity associated with minoxidil; also recorded: inactive as antihypertensive agents	9.0 ± 0.9%	0.95 ± 0.02	0.95 ± 0.02	103%	inhibitory potential comparable to that of minoxidil; also recorded: as active as minoxidil in suppressing fibroblast proliferation and lysyl hydroxylase activity	401 cpm^3 H2 O/mg protein	263 cpm ^3 H2 O/mg protein	263 cpm^3 H2 O/mg protein	383 cpm^3 H2 O/mg protein	without affecting prolyl hydroxylase	remained unchanged	30512 cpm ^3 H2 O/mg protein	30512 cpm^3 H2 O/mg protein	0.07 ± 0.01	0.07 ± 0.01	32%	as active as minoxidil in suppressing fibroblast proliferation	22%
